In assay [1] the test system is fluconazole-resistant C. albicans. Kind of assay: In vitro assay for candidacidal activity of hLF-derived peptides and/or fluconazole (co-incubation, CFU count). It is filed as cell-based. The settings on record: 1×10^6 CFU/ml, 2 h at 37°C; noncandidacidal peptide concentrations; fluconazole 100-200 µg/ml; Fig. 1.
Procedure: • Figure 1 - Candidacidal activity of combinations of noncandidacidal concentrations of hLF(1-11), an N-terminal peptide of human lactoferrin and 200 µg/ml fluconazole (closed bars), 150 µg/ml fluconazole (black dotted bars), 100 µg/ml fluconazole (white dotted bars) or without this triazole (open bars). […] In short, 1×10^6 CFU fluconazole-resistant C. albicans/ml were incubated with combinations of hLF(1-11) and fluconazole for 2 h at 37°C and then the number of surviving Candida was determined microbiologically. […] In short, 1×10^6 CFU Candida/ml were preincubated for 5 min at 37°C with (8 µM) hLF(1-11) or (200 µg/ml) fluconazole, washed and then incubated for 2 h at 37°C with (200 µg/ml) fluconazole or (8 µM) hLF(1-11), respectively. As controls, Candida cells were incubated for 2 h at 37°C with (8 µM) hLF(1-11), (200 µg/ml) fluconazole, the combination of (8 µM) hLF(1-11) and (200 µg/ml) fluconazole or no agent. Results are means plus SD of at least three independent experiments.
Assay for candidacidal activity of hLF-derived peptides and fluconazole. […] After a 2 h incubation at 37°C with hLF peptides and/or fluconazole the number of viable blastoconidia was determined by plating serial dilutions of each sample on Sabouraud agar. Results are expressed as colony forming units (CFU) per ml.
In assay [2] the test system is Fluconazole-resistant C. albicans strain Y01-19. Put plainly: E-test for fluconazole resistance. Format: cell-based. The following applies: Candida albicans. How it is done:
Fluconazole. Fluconazole (Pfizer Inc. New York, NY) was dissolved at a concentration of 1 mg/ml of dimethylsulfoxide (Fluka Chemie GmbH, Sigma-Aldrich Chemie BV, Zwijndrecht, The Netherlands) and stored at -20°C until use. From this stock solution appropriate concentrations were prepared in 10 mM of sodium phosphate buffer (pH 7.4), further referred to as NaPB. Source of C. albicans strain. Fluconazole-resistant C. albicans strain Y01-19 was purchased from Pfizer (Groton, Conn.). […] Fluconazole resistance (M.I.C.>256 µg/ml) was evaluated using the E-test (Oxoid Unipath Ltd., Basingstoke, UK). Yeasts were cultured overnight in Sabouraud broth (Oxoid) at 37°C and sub-cultured for 2,5 h on a rotary wheel at 37°C.

Structures are written as SMILES.

In general, MIC refers to the lowest concentration that inhibits growth of the organism. High values mean a need for much substance, low ones inhibition by little substance. On to `OC(Cn1cncn1)(Cn1cncn1)c1ccc(F)cc1F` [Fluconazole], for which the candidacidal activity entry in assay [1] is reported as “without effect”. The molecule further came in with an MIC in assay [2] of more than 256 µg/mL.
